Assay results from patent publication US9758459B2, “Allosteric modulators of factor XIa as anticoagulant agents” (VIRGINIA COMMONWEALTH UNIVERSITY, priority 2012, dated 2017).
“And” between values parts separate entries of the source, which are not always exact repeats. Equal values may be shown once. Read-outs that look alike come from different tables or passages of the source.

Columns and labels:
Type in all cases: biochemical
[1] = molecular target: T1, human factor XIa (Homo sapiens, UniProt P03951); experiment: Direct inhibition of factor XIa, chromogenic substrate S-2366 hydrolysis assay
T1 construct: purchased Haematologic Technologies (Essex Junction, Vt.); host or cells: human plasma
T1 sequence (P03951 19-387 limits assumed): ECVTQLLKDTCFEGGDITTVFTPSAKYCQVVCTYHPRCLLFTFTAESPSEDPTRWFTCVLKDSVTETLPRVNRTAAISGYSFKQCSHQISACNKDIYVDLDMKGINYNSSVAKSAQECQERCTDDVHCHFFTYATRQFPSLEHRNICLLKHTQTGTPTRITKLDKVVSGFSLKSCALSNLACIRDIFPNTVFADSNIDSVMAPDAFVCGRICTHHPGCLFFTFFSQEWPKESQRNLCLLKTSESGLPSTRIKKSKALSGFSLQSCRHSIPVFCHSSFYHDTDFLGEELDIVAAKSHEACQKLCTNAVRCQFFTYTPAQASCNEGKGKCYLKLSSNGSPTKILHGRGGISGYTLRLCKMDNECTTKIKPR
T1 sequence (P03951 388-625 limits assumed): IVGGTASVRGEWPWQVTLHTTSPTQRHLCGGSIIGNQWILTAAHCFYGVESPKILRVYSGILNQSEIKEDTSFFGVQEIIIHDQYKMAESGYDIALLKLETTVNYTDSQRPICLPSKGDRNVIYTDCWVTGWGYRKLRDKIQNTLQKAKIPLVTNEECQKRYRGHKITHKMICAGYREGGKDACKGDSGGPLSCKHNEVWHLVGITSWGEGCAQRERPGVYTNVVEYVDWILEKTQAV
Method: Solvent A consisted of 25 mM n-hexylamine in water containing 0.1% (v/v) formic acid, while solvent B consisted of 25 mM n-hexylamine in acetonitrile-water mixture (3:1 v/v) containing 0.1% (v/v) formic acid. […] The sample was first monitored for absorbance in the range of 190-400 nm and then directly introduced into the mass spectrometer. ESI-MS detection was performed in positive ion mode for which the capillary voltage was 4 kV, cone voltage was 20 V, desolvation temperature was 350° C. and nitrogen gas flow was maintained at 650 L/hr. Mass scans were collected in the range of 1000-2048 amu within 0.25 s and several of these added to enhanced signal-to-noise ratio. Direct Inhibition of Factor XIa. […] After 10 min incubation, 5 μL factor XIa substrate (345 μM) was rapidly added and the residual FXIa activity was measured from the initial rate of increase in absorbance at 405 nm. […] Relative residual FXIa activity at each concentration of the inhibitor was calculated from the ratio of FXIa activity in the presence and absence of the inhibitor. Logistic equation 1 was used to fit the dose-dependence of residual protease activity to obtain the potency (IC50) and efficacy (ΔY) of inhibition.
Direct Inhibition of Factor XIa by Sulfated QAOs was performed as described in Example 1.
The ability of the sulfated inositol analogs to inhibit factor XIa was studied using the in vitro assay described in Example 1. In this assay, the factor XIa enzyme is anticipated to hydrolyze a particular peptide linkage in the corresponding peptide substrate releasing p-nitroaniline which absorbs at wavelength of 405 nm giving a line slope corresponds to the enzyme activity. The line slope of no inhibitor status is considered as a reference slope and it depends on the relative concentrations of factor XIa enzyme and its substrate. Factor XIa enzyme concentration was decided to get appropriate reference slope of approximately 25-35, whereas the substrate concentration was set to be larger than its affinity to factor XIa enzyme under equilibrium condition, Km. In presence of potential factor XIa inhibitor, the enzyme capacity to hydrolyze the designated peptide linkage in the substrate gets diminished or completely abolished depending on the inhibitor concentration and efficacy. […] Such decreased slope reflects a drop in the catalytic enzyme activity of factor XIa.

[2] = test system: human plasma; experiment: Prothrombin time (PT) plasma clotting assay; details: for 2 × PT: concentration doubling clotting time
Method: (§1) Plasma clotting assays, prothrombin and activated partial thromboplastin time (PT and APTT, respectively), are routinely used to assess the anticoagulation potential of new enzyme inhibitors in an in vitro setting. Whereas PT measures the effect of an inhibitor on the extrinsic pathway of coagulation, APTT measures the effect on the intrinsic pathway.
(§2) Prothrombin Time (PT) and Activated Partial Thromboplastin Time (APTT) were assessed as described in Example 1.

[3] = test system: human plasma; experiment: Activated partial thromboplastin time (APTT) plasma clotting assay; details: human plasma, concentration doubling clotting time
Method: as §1, §2

[4] = molecular target: T2, FXIa wild type (FXIa-WT) (Homo sapiens, UniProt P03951); experiment: Michaelis-Menten kinetics of S-2366 hydrolysis by full-length factor XIa; details: 14S 135 μM, pH 7.4, 37° C.
T2 construct: made in house; host or cells: HEK-293
T2 sequence (P03951 19-387 limits assumed): as the sequence (P03951 19-387 limits assumed) above
T2 sequence (P03951 388-625 limits assumed): as the sequence (P03951 388-625 limits assumed) above
Method: Plasma FIX (500 nM) was incubated with human FXIa (3 nM) in 50 mM Hepes buffer, pH 7.4, containing 125 mM NaCl, 5 mM CaCl2, and 0.1 mg/mL bovine serum albumin at 24° C. […] The primary antibody was goat anti-human FIX polyclonal IgG (Enzyme Research Laboratories, South Bend, Tenn.), and the secondary antibody was horseradish peroxidase-conjugated anti-goat IgG. Detection was by chemiluminescence. […] The inhibition profile was determined over a range of inhibitor concentrations to determine the IC50 of the enzyme-inhibitor complex. The KM of the substrate for its enzyme was used to identify the concentration of the substrate to be used for inhibition studies. […] Active site concentrations for preparations of FXIa were determined by titrations with human antithrombin in an S-2366 cleavage assay. The reaction was monitored using a SpectraMax 340 microtiter plate reader (Molecular Devices Corp., Sunnyvale, Calif.) with a reaction volume of 100 μL and path length of 3 mm. Each assay was performed in triplicate. The concentration of S-2366 was measured using an absorption coefficient of 8,266 M-1cm-1 at λ342 nm, while the free p-nitroaniline concentration was calculated using an absorption coefficient of 9,933 M cm^−1 at λ405 nm. The data was fitted using the standard Michaelis-Menten equation to determine the KM and VMAX. Results

[5] = molecular target: T3, Arg530Ala FXIa-CD single mutant (Homo sapiens, UniProt P03951, C500S/R548A); experiment: 16S inhibition of Arg530Ala FXIa-CD, S2366 hydrolysis; details: Arg530 replaced by Ala
T3 construct: eliminating the bond allows the catalytic domain of FXIa (FXIa-CD) to separate from the heavy chain; made in house; host or cells: HEK-293
T3 sequence (P03951 388-625 C500S/R548A): as the sequence (P03951 388-625 limits assumed) above, with C113S, R161A counted along it
Excerpt: (§3) FIG. 15. […] Solid lines represent sigmoidal dose-response fits.
(§4) Mutagenesis and Expression of Recombinant Factor XIa. Mutations in the FXIa 170 helix were introduced into a modified human FXI cDNA (FXI-Ser-362,482), which contains serine substitutions for Cys362 and Cys482 (FXI numbering), as described earlier in several papers.^7,8 A disulfide bond between these residues connects the heavy chains and catalytic domains after cleavage at the activation site, and eliminating the bond allows the catalytic domain of FXIa (FXIa-CD) to separate from the heavy chain. The basic residues of the FXIa 170-helix, Lys529, Arg530, Arg532, Lys535 and Lys539 in the FXI numbering system (correspond to residues 170, 171, 173, 175 and 179 in the chymotrypsinogen numbering system), were changed to alanine individually and as a group using a Quick Change kit (Stratagene, La Jolla, Calif.). cDNAs in expression vector pJVCMV were used to transfect HEK-293 cells as described. Stably expressing clones were expanded in 175 cm^2 flasks, and serum free media (Cellgro Complete, Mediatech, Herndon, Va.) was collected every 48 hours, supplemented with benzamidine (5 mM) and stored at −80° C. pending purification. […] Protein containing fractions were pooled, concentrated and dialyzed, and protein concentrations were determined by dye-binding assay (Bio-Rad). […]

[6] = molecular target: T4, Lys539Ala FXIa-CD (Homo sapiens, UniProt P03951, C500S/K557A); experiment: 16S inhibition of Lys539Ala FXIa-CD; details: not shown
T4 construct: eliminating the bond allows the catalytic domain of FXIa (FXIa-CD) to separate from the heavy chain; made in house; host or cells: HEK-293
T4 sequence (P03951 388-625 C500S/K557A): as the sequence (P03951 388-625 limits assumed) above, with C113S, K170A counted along it
Excerpt: as §4, with “purification. Recombinant FXI was purified from conditioned media on an anti-fXI IgG 1G5.12 affinity column.” for “purification.”

[7] = molecular target: T5, Lys529Ala,Arg530Ala,Arg532Ala FXIa-CD triple mutant (Homo sapiens, UniProt P03951, C500S/K547A/R548A/R550A); experiment: 16S inhibition of triple mutant FXIa-CD, S2366 hydrolysis
T5 construct: eliminating the bond allows the catalytic domain of FXIa (FXIa-CD) to separate from the heavy chain; made in house; host or cells: HEK-293
T5 sequence (P03951 388-625 C500S/K547A/R548A/R550A): as the sequence (P03951 388-625 limits assumed) above, with C113S, K160A, R161A, R163A counted along it
Excerpt: as §3
(§5) Mutagenesis and Expression of Recombinant Factor XIa. Mutations in the FXIa 170 helix were introduced into a modified human FXI cDNA (FXI-Ser-362,482), which contains serine substitutions for Cys362 and Cys482 (FXI numbering), as described earlier in several papers.^7,8 A disulfide bond between these residues connects the heavy chains and catalytic domains after cleavage at the activation site, and eliminating the bond allows the catalytic domain of FXIa (FXIa-CD) to separate from the heavy chain. The basic residues of the FXIa 170-helix, Lys529, Arg530, Arg532, Lys535 and Lys539 in the FXI numbering system (correspond to residues 170, 171, 173, 175 and 179 in the chymotrypsinogen numbering system), were changed to alanine individually and as a group using a Quick Change kit (Stratagene, La Jolla, Calif.). cDNAs in expression vector pJVCMV were used to transfect HEK-293 cells as described. Stably expressing clones were expanded in 175 cm^2 flasks, and serum free media (Cellgro Complete, Mediatech, Herndon, Va.) was collected every 48 hours, supplemented with benzamidine (5 mM) and stored at −80° C. pending purification. Recombinant FXI was purified from conditioned media on an anti-fXI IgG 1G5.12 affinity column. After loading, the column was washed with 25 mM Tris-HCl, pH 7.4, 100 mM NaCl, and eluted with 2M NaSCN in the same buffer. Protein containing fractions were pooled, concentrated and dialyzed, and protein concentrations were determined by dye-binding assay (Bio-Rad). Recombinant wild-type FXI or FXI-CD (˜200-300 μg/ml) was activated with 5 μg/ml FXIIa at 37° C. Completion of activation was confirmed by SDS-PAGE. Activated preparations were passed over a 1G5.12 column to separate the protease from FXIIa. In the case of proteins prepared in FXI-Ser-362,482, the catalytic domains bind to the column, while the heavy chain passes through.
(§6) Heparin binds to FXIa in two sites—in the A3 domain (Lys252, Lys253, and Lys255) and in the catalytic domain (Lys529, Arg530, Arg532, Lys535, and Lys539). […]

[8] = molecular target: T6, Lys535Ala FXIa-CD (Homo sapiens, UniProt P03951, C500S/K553A); experiment: 16S inhibition of Lys535Ala FXIa-CD; details: not shown
T6 construct: eliminating the bond allows the catalytic domain of FXIa (FXIa-CD) to separate from the heavy chain; made in house; host or cells: HEK-293
T6 sequence (P03951 388-625 C500S/K553A): as the sequence (P03951 388-625 limits assumed) above, with C113S, K166A counted along it
Excerpt: as §4, with “purification. Recombinant FXI was purified from conditioned media on an anti-fXI IgG 1G5.12 affinity column.” for “purification.”

[9] = molecular target: T7, recombinant wild type FXIa catalytic domain (FXIa-CD) (Homo sapiens, UniProt P03951, C500S); experiment: 16S inhibition of recombinant FXIa catalytic domain, S2366 hydrolysis
T7 construct: eliminating the bond allows the catalytic domain of FXIa (FXIa-CD) to separate from the heavy chain; made in house; host or cells: HEK-293
T7 sequence (P03951 388-625 C500S): as the sequence (P03951 388-625 limits assumed) above, with C113S counted along it
Excerpt: as §3, §5, §6

[10] = molecular target: T1, human factor XIa; experiment: Direct inhibition of factor XIa, chromogenic substrate S-2366 hydrolysis assay; details: FXIa-WT, 16S plus 30 μM polybrene
[11] = sulfated QAOs, pH 7.4, 37° C., read-out: IC50 (converted)

SMILES	ΔY % (efficacy) ([1]; sulfated QAOs) [%]	IC50 [1, 11]	2 × PT [2] [µM]	2 × APTT [3] [µM]	also measured
O=c1c2ccccc2nc(-c2ccc(OS(=O)(=O)O)cc2)n1CCCCn1cc(Cn2c(-c3ccc(OS(=O)(=O)O)cc3)nc3ccccc3c2=O)nn1 [Inhibitor 13S]	91 ± 2	82 µM and ~80 µM	1119	979	concentration for 2-fold increase in PT [2]: about 1.12 mM
O=c1c2ccccc2nc(-c2cccc(OS(=O)(=O)O)c2)n1CCCCn1cc(Cn2c(-c3ccc(OS(=O)(=O)O)cc3)nc3ccccc3c2=O)nn1 [Inhibitor 14S]	103 ± 5	91 µM			VMAX [4]: 5.1±0.5 mAU/min
O=c1c2ccccc2nc(-c2ccc(OS(=O)(=O)O)cc2)n1CCCCCn1cc(Cn2c(-c3ccc(OS(=O)(=O)O)cc3)nc3ccccc3c2=O)nn1 [Inhibitor 15S]	89 ± 2	59 µM	1684	1062	
O=c1c2ccccc2nc(-c2ccc(OS(=O)(=O)O)cc2)n1CCCCCCn1cc(Cn2c(-c3ccc(OS(=O)(=O)O)cc3)nc3ccccc3c2=O)nn1 [Inhibitor 16S]	97 ± 1	~50 µM and 52 µM	>2000	950	proteolytic activity in the presence of 16S ([1]; full length wild-type FXIa, no polybrene): approximately 4%; increase in IC50 versus FXIa-CD [5]: 2 fold; change in IC50 from wild-type FXIa-CD [6]: no change in IC50; proteolytic activity in the presence of 16S ([7]; FXIa-CD triple mutations, no polybrene): ~5%; inhibition level after addition of polybrene ([7]; FXIa-CD with triple mutations, 16S plus 30 μM polybrene): 7.1±1.2%; reduction of potency versus FXIa-CD ([7]; Lys529, Arg530 and Arg532 replaced by Ala): approximately 5 fold; change in IC50 from wild-type FXIa-CD [8]: no change in IC50; inhibition level after addition of polybrene ([9]; FXIa-CD, 16S plus 30 μM polybrene): 13.1±0.7%; proteolytic activity in the presence of 16S ([9]; FXIa-CD, no polybrene): ~6%; inhibition of FXIa-CD compared with wild-type enzyme ([9]; not shown): as potently as the wild-type enzyme; inhibition level after addition of polybrene [10]: 9.2±1.0%
O=C(OC1C(OC(=O)c2cc(OS(=O)(=O)O)cc(OS(=O)(=O)O)c2)C(OC(=O)c2cc(OS(=O)(=O)O)cc(OS(=O)(=O)O)c2)C(OC(=O)c2cc(OS(=O)(=O)O)cc(OS(=O)(=O)O)c2)C(OC(=O)c2cc(OS(=O)(=O)O)cc(OS(=O)(=O)O)c2)C1OC(=O)c1cc(OS(=O)(=O)O)cc(OS(=O)(=O)O)c1)c1cc(OS(=O)(=O)O)cc(OS(=O)(=O)O)c1 (stereo not shown) [SMI, Sulfated hexa-substituted myo-inositol]					IC50 ([1]; read-out: FXIa-IC50): 0.09 µM
